Results taken from US20090214529A9, “KINESIN INHIBITORS” (TaiGen Biotechnology Co., Ltd., priority 2007, published 2009).
pIC50: −log10 of the molar value.

Experiments:
[1] = system: Human Colo205 cells; test: Cell cycle arrest assay (flowcytometry, propidium iodide); type: cell-based; settings: DNA content by flowcytometry
Procedure: The efficacy of a test compound to arrest cells as a KSP inhibitor was determined by flowcytometry analysis. Human Colo205 cells were grown in 6-well plates and treated the next day with the test compound for various time lengths. They were then scraped from plates using a rubber policeman, washed with PBS, and centrifuged at 1,000 rpm for 5 minutes. 1 ML of a buffer containing 10 μM of propidium iodide and 50 ug/ml of RNase A was used to re-suspend the cells. The cells were subsequently incubated in this buffer for 10 minutes at room temperature in the dark, passed through a filter to remove cell clumps, and observed under a Coulter Epics XL-MCL Training Modules flowcytometer.

[2] = system: tumor cell; test: Cytotoxicity assay (MTS); type: cell-based; settings: 72 h; incubation for three days; read-out: IC50, tumor cell growth inhibition (MTS)
Procedure, shortened: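 Tumour cells seeded overnight, then exposed to varying compound concentrations for three days. Viability read by MTS/PMS conversion to formazan (2 h, 37 °C, absorbance 490 nm). Results given as blank-corrected T/C (%) against vehicle controls.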

[3] = system: human colon cancer cell line (Colo205) xenograft; test: In vivo tumor growth inhibition assay, nude mice s.c. implanted tumor model
Procedure: The human colon cancer cell line (Colo205) obtained from the American Type Culture Collection (Rockville, Md.) was used for the xenograft model. The cell line was maintained in growth medium supplemented with L-glutamine, ribonucleosides, deoxyribonucleosides, 10% FCS, and the following antimicrobial agents: 100 IU/ml penicillin, […] streptomycin, and […] amphotericin B. Cultures were established in 75-cm^2 flasks (Costar, Cambridge, Mass.), maintained at 37° C. in a humidified atmosphere with 5% CO2 in air, and subcultured every 4˜7 days with 0.25% trypsin in HBSS (Invitrogen Life Technologies, Carlsbad, Calif.). For in vivo tumor growth, cells (1×10^7) suspended in 100 μl of PBS were inoculated in the flanks of 5-week-old female athymic BALB/cAnNCij-nu/nu mice (Charles River, Kanagawa, Japan). Seven days after inoculation (day 7), mice with tumors measuring 6-7 mm in diameter were randomly separated into 3 groups with five mice in each group. Compound 36 was dissolved in a vehicle (10% 40 mM sodium citrate, 5% Tween-80, 5% ethanol in saline) and intraperitoneally administered respectively to the groups of mice at the selected dose levels with the selected dosing regimen. A vehicle was administered to the third group of mice. Tumor size was measured twice weekly until day 30. Tumor volume (TV) was calculated as follows: volume=[length (mm)×width (mm)^2]×0.52. The tumor growth for each group was expressed by the median values of the ratio between the tumor volume measured at a specific day to the initial tumor volume measured at the day of first dosing.

Compound	pIC50 [2]	other results
Cc1ccc(C(=O)N(CCN)C(c2nc3c(oc4ccc(F)cc43)c(=O)n2Cc2ccc(Br)o2)C(C)C)cc1 (stereo not shown) [Compound 81]	> 4.52	shift in cell cycle population [1]: shift in the population of cells from a G0/G1 stage (2N DNA content) to a G2/M stage (4N DNA content)
Cc1ccc(C(=O)N(CCN)C(c2nc3c(oc4ccc(F)cc43)c(=O)n2Cc2ccc(C#N)s2)C(C)C)cc1 (stereo not shown) [Compound 83]	> 4.52	shift in cell cycle population [1]: shift in the population of cells from a G0/G1 stage (2N DNA content) to a G2/M stage (4N DNA content)
Cc1ccc(C(=O)N(CCN)C(c2nc3c(oc4ccc(F)cc43)c(=O)n2Cc2ccccc2)C(C)C)cc1 (stereo not shown) [Compound 62]		shift in cell cycle population [1]: shift in the population of cells from a G0/G1 stage (2N DNA content) to a G2/M stage (4N DNA content)
Cc1ccc(C(=O)N(CCN)C(c2nc3c(oc4ccc(F)cc43)c(=O)n2Cc2ccc(Br)s2)C(C)C)cc1 (stereo not shown) [Compound 66]	> 4.52	shift in cell cycle population [1]: shift in the population of cells from a G0/G1 stage (2N DNA content) to a G2/M stage (4N DNA content)
Cc1ccc(C(=O)N(CCN)[C@@H](c2nc3c(oc4ccc(F)cc43)c(=O)n2Cc2ccc(Br)o2)C(C)C)cc1 [Compound 177]	> 4.52	shift in cell cycle population [1]: shift in the population of cells from a G0/G1 stage (2N DNA content) to a G2/M stage (4N DNA content)
Cc1csc(Cn2c(C(C(C)C)N(CCN)C(=O)c3ccc(C)c(F)c3)nc3c(oc4ccc(F)cc43)c2=O)c1 (stereo not shown) [Compound 168]	> 4.52	shift in cell cycle population [1]: shift in the population of cells from a G0/G1 stage (2N DNA content) to a G2/M stage (4N DNA content)
Cc1ccc(C(=O)N(CCN)C(c2nc3c(oc4ccc(F)cc43)c(=O)n2Cc2cc(C)cs2)C(C)C)cc1 (stereo not shown) [Compound 84]	> 4.52	shift in cell cycle population [1]: shift in the population of cells from a G0/G1 stage (2N DNA content) to a G2/M stage (4N DNA content); tumor growth inhibition at day 20 ([3]; 60 mg/Kg, q3dx3, day 20): more than 90%
Cc1ccc(C(=O)N(CCN)C(c2nc3c(oc4ccc(F)cc43)c(=O)n2Cc2ccc(C(F)(F)F)o2)C(C)C)cc1 (stereo not shown) [Compound 86]	> 4.52	shift in cell cycle population [1]: shift in the population of cells from a G0/G1 stage (2N DNA content) to a G2/M stage (4N DNA content)
Cc1ccc(C(=O)N(CCCN)C(c2nc3c(oc4ccc(F)cc43)c(=O)n2Cc2cccc(F)c2)C(C)C)cc1 (stereo not shown) [Compound 80]	> 4.52	
CCC(c1nn2c(cc3ccccc32)c(=O)n1Cc1ccccc1)N(CCCN)C(=O)c1ccc(C)cc1 (stereo not shown) [Compound 159]	> 4.52	
CC(C)[C@H](c1nc2c(oc3ccc(F)cc32)c(=O)n1Cc1ccccc1)N(CCN)C(=O)c1ccc(Cl)cc1 [Compound 193]	> 4.52	
CC(C)C(c1nc2c(sc3ccc(F)cc32)c(=O)n1Cc1ccccc1)N(CCCN)C(=O)c1ccc(Br)cc1 (stereo not shown) [Compound 140]	> 4.52	
Cc1ccc(C(=O)N(CCN)C(c2nc3c(oc4ccc(F)cc43)c(=O)n2Cc2ccc(CO)cc2)C(C)C)cc1 (stereo not shown) [Compound 130]	> 4.52	
Cc1ccc(Cn2c([C@@H](C(C)C)N(CCN)C(=O)c3ccc(C)cc3)nc3c(oc4ccc(F)cc43)c2=O)cc1 [Compound 180]	> 4.52	
Cc1ccc(C(=O)N(CCN)C(c2nc3c(oc4cc(F)ccc43)c(=O)n2Cc2cc(C)cs2)C(C)C)cc1 (stereo not shown) [Compound 109]	> 4.52	
Cc1ccc(C(=O)N(CCN)C(c2nc3c(oc4ccc(F)cc43)c(=O)n2Cc2cccc(C)c2)C(C)C)cc1 (stereo not shown) [Compound 104]	> 4.52	
Cc1ccc(C(=O)N(CCN)C(c2nc3c(oc4ccc(F)cc43)c(=O)n2Cc2ccc(C(N)=O)o2)C(C)C)cc1 (stereo not shown) [Compound 113]	> 4.52	
CCCC(c1nc2c(oc3ccccc32)c(=O)n1Cc1ccccc1)N(CCCN)C(=O)c1ccc(C)cc1 (stereo not shown) [Compound 50]	> 4.52	
Cc1ccc(C(=O)N(CCCN)C(c2nc3c(sc4ccccc43)c(=O)n2Cc2ccc(Br)s2)C(C)C)cc1F (stereo not shown) [Compound 146]	> 4.52	
Cc1ccc(C(=O)N(CCN)C(c2nc3c(oc4ccc(Cl)cc43)c(=O)n2Cc2ccccc2)C(C)C)cc1 (stereo not shown) [Compound 36]	> 4.52	tumor growth inhibition (in words) ([3]; 40 mg/Kg and 30 mg/Kg, intraperitoneal, q2dx5, Colo205 xenograft): significant tumor growth inhibition; tumor growth inhibition at day 10 ([3]; 40 mg/Kg and 30 mg/Kg, intraperitoneal, q2dx5, day 10): more than 83%; tumor growth inhibition at day 13 ([3]; 40 mg/Kg and 30 mg/Kg, intraperitoneal, q2dx5, day 13): more than 90%; tumor growth inhibition at day 16 ([3]; 40 mg/Kg and 30 mg/Kg, intraperitoneal, q2dx5, day 16): more than 92%; tumor inhibition, higher dose versus lower dose ([3]; 40 mg/Kg compared with 30 mg/Kg, q2dx5): stronger tumor inhibition

Compound	pIC50 [2]	other results
Cc1ccc(C(=O)N(CCN)[C@@H](c2nc3c(oc4ccc(F)cc43)c(=O)n2Cc2ccc(Cl)o2)C(C)C)cc1F [Compound 190]	> 4.52	
Cc1ccc(C(=O)N(CCCN)C(c2nc3n(c(=O)c2Cc2ccccc2)Cc2ccccc2-3)C(C)C)c(F)c1F (stereo not shown) [Compound 154]	> 4.52	
Cc1ccc(C(=O)N(CCN)C(c2nc3c(oc4ccc(Cl)cc43)c(=O)n2Cc2cccs2)C(C)C)cc1 (stereo not shown) [Compound 44]	> 4.52	
Cc1csc(Cn2c([C@@H](C(C)C)N(CCN)C(=O)c3ccc(C)c(F)c3)nc3c(oc4ccc(F)cc43)c2=O)c1 [Compound 176]	> 4.52	
Cc1ccc(C(=O)N(CCCN)C(c2nc3c(oc4ccccc43)c(=O)n2Cc2ccc(Cl)s2)C(C)C)cc1 (stereo not shown) [Compound 16]	> 4.52	
Cc1ccc(C(=O)N(CCN)C(c2nc3c(oc4ccc(Cl)cc43)c(=O)n2Cc2ccc(Cl)o2)C(C)C)cc1 (stereo not shown) [Compound 100]	> 4.52	
CC(C)C(c1nc2c(oc3ccc(F)cc32)c(=O)n1Cc1ccc(Cl)s1)N(CCN)C(=O)c1ccc(Cl)cc1 (stereo not shown) [Compound 68]	> 4.52	
Cc1csc(Cn2c(C(C(C)C)N(CCN)C(=O)c3ccc(Cl)cc3)nc3c(oc4ccc(F)cc43)c2=O)c1 (stereo not shown) [Compound 166]	> 4.52	
Cc1ccc(C(=O)N(CCN)[C@@H](c2nc3c(oc4ccc(F)cc43)c(=O)n2Cc2ccccc2)C2CC2)cc1 [Compound 225]	> 4.52	
Cc1ccc(C(=O)N(CCCN)C(c2nc3c(oc4ccc(Cl)cc43)c(=O)n2Cc2ccsc2)C(C)C)cc1 (stereo not shown) [Compound 78]	> 4.52	
CC(C)[C@H](c1nc2c(oc3ccc(F)cc32)c(=O)n1Cc1cccc(F)c1)N(CCN)C(=O)c1ccc(Br)cc1 [Compound 203]	> 4.52	
Cc1ccc(C(=O)N(CCCN)C(c2nc3c(oc4ccc(F)cc43)c(=O)n2Cc2cc(Br)co2)C(C)C)cc1 (stereo not shown) [Compound 93]	> 4.52	
Cc1ccc(C(=O)N(CCCN)C(c2nc3c(oc4ccc(F)cc43)c(=O)n2Cc2ccc(Cl)o2)C(C)C)cc1 (stereo not shown) [Compound 91]	> 4.52	
Cc1ccc(C(=O)N(CCN)[C@@H](c2nc3c(oc4ccc(F)cc43)c(=O)n2Cc2ccc(Cl)o2)C(C)C)cc1 [Compound 189]	> 4.52	
CC(C)C(c1nc2c(sc3ccccc32)c(=O)n1Cc1ccc(Br)s1)N(CCCN)C(=O)c1ccc(Br)cc1 (stereo not shown) [Compound 145]	> 4.52	
Cc1ccc(C(=O)N(CCN)[C@@H](c2nc3c(oc4ccc(F)cc43)c(=O)n2Cc2cccc(F)c2)C(C)C)cc1 [Compound 187]	> 4.52	
CC(C)[C@H](c1nc2c(oc3ccc(F)cc32)c(=O)n1Cc1ccc(Br)s1)N(CCN)C(=O)c1ccc(Br)cc1 [Compound 210]	> 4.52	
CC(C)C(c1nc2c(sc3ccc(F)cc32)c(=O)n1Cc1ccccc1)N(CCCN)C(=O)c1ccc(Cl)cc1 (stereo not shown) [Compound 139]	> 4.52	
Cc1ccc(C(=O)N(CCN)[C@@H](c2nc3c(oc4ccc(F)cc43)c(=O)n2Cc2cccs2)C(C)C)cc1 [Compound 199]	> 4.52	
